Measurements published in article PMC5891061, “Electrophysiological mechanisms of vandetanib-induced cardiotoxicity: Comparison of action potentials in rabbit Purkinje fibers and pluripotent stem cell-derived cardiomyocytes” (PLoS ONE, 2018).

Columns and labels:
[1] = cited from earlier work
hiPSC-CMs = assay: Spontaneous action potential recording in hiPSC-CMs (whole-cell current clamp); format: cell-based, human
Procedure: The hiPSC-CMs from human fibroblast cell lines (iCell Cardiomyocytes; Cellular Dynamics International, Madison, WI, USA) were purchased and cultured for single-cell electrophysiological recordings. Frozen vials of hiPSC-CMs were thawed in a water bath maintained at 37°C and mixed with ice-cold plating medium (iCell Cardiomyocyte Plating Medium, glucose-free). The cells were transferred to four-well culture plates containing 0.1% gelatin-coated glass coverslips and then maintained in a culture incubator at 37°C in an atmosphere of 93% air and 7% CO2. After 2 days of culture, the plating medium was replaced with culture medium (iCell Cardiomyocyte Maintenance Medium, glucose-free), which was then changed every 2 days. The hiPSC-CMs were cultured for 4 weeks and used at 7 to 28 days post-thaw for electrophysiological analysis. At this time, the amplitudes and intervals of the spontaneous APs are stabilized, and electrically connected syncytial layers are formed. […] The internal solution contained (in mM) 120 K-Asp, 20 KCl, 5 NaCl, 2 CaCl2, 10 HEPES, 5 EGTA, and 5 Mg-ATP (pH 7.25). We recorded typical APs in hiPSC-CMs in the current-clamp mode. The spontaneous beating activity or paced firing of single hiPSC-CMs were recorded, and only hiPSC-CMs that could beat stably were included in the analysis. Following stabilization of the AP waveforms, the average of six recorded APs for each test concentration was analyzed.
Using the patch-clamp technique, we measured the APs in spontaneously contracting cells isolated from hiPSC-CMs. […] Ventricular-type APs were distinguished based on the relatively more negative maximal diastolic potential (MDP) and rapid AP upstroke with long plateau phase.

F656A hERG = F656A hERG (Homo sapiens, UniProt Q12809, F656A); assay: in vitro; conditions: HEK-293 cells transiently expressing F656A mutant hERG
S624A hERG = S624A hERG (Homo sapiens, UniProt Q12809, S624A); conditions: 3 μM
Text: (§1) The hERG mutations were constructed by site-directed mutagenesis of WT hERG cDNA in pcDNA3.1 vector using the QuickChange Site-Directed Mutagenesis Kit (Stratagene), and the integrity of the construct was verified by DNA sequencing. The WT hERG (generously donated by Professor Ho, Seoul National University, Korea) and mutant channels were transiently expressed in an HEK-293 cell line using Lipofectamine 2000 (Gibco), according to the manufacturer’s recommendations.

T623A hERG = T623A hERG (Homo sapiens, UniProt Q12809, T623A); conditions: 3 μM
Text: as §1

WT (inward) hERG = WT (inward) hERG (Homo sapiens, UniProt Q12809); conditions: 3 μM, -120 mV, high K+
Text: as §1

[2] = molecular target: WT hERG (inward tail current) (Homo sapiens, UniProt Q12809); conditions: human, HEK-293 cells transiently expressing wild-type hERG
Text: as §1

COc1cc2c(Nc3ccc(Br)cc3F)ncnc2cc1OCC1CCN(C)CC1 [Vandetanib]
Incidence of asymptomatic QTc prolongation ([1]; Japanese phase I trial): 61% | Patients with side effects such as diarrhea/colitis, rash, nausea, and hypertension ([1]; patients): > 20% | Patients who developed asymptomatic QTc prolongation ([1]; phase I trial in solid tumors): 9% | Incidence of asymptomatic QT prolongation ([1]; phase II trials): 15% | APA (hiPSC-CMs; 0.3 μM): 104.2 ± 3.0 mV | APD50 (hiPSC-CMs; 0.3 μM): 349.3 ± 50.9 ms | APD90 (hiPSC-CMs; 0.3 μM): 481.0 ± 53.9 ms | MDP (hiPSC-CMs; 0.3 μM): -66.9 ± 2.3 mV | Vmax (hiPSC-CMs; 0.3 μM): 40.3 ± 13.9 V/s | APA (hiPSC-CMs; 1 μM): 105.5 ± 3.6 mV | APD50 (hiPSC-CMs; 1 μM): 596.4 ± 158.8 ms | APD90 (hiPSC-CMs; 1 μM): 880.9 ± 192.6 ms | MDP (hiPSC-CMs; 1 μM): -64.5 ± 2.4 mV | Vmax (hiPSC-CMs; 1 μM): 36.0 ± 13.0 V/s | APA (hiPSC-CMs; 3 μM): 100.7 ± 2.2 mV | APD50 (hiPSC-CMs; 3 μM): 1243.0 ± 386.1 ms | APD90 (hiPSC-CMs; 3 μM): 2047.9 ± 597.1 ms | Decrease of APA compared to vehicle control (hiPSC-CMs; 3 μM): 4.2% | Decrease of MDP compared to vehicle control (hiPSC-CMs; 3 μM): 9% | MDP (hiPSC-CMs; 3 μM): -61.0 ± 1.5 mV | Vmax (hiPSC-CMs; 3 μM): 19.5 ± 6.5 V/s | Early after depolarization (EAD) (hiPSC-CMs; 3 μM, n = 6 cells): induced at 3 μM of vandetanib in all cells tested | Concentration from which prolongation of APD50 and APD90 was observed (hiPSC-CMs; tested 0.3, 1, 3 μM): ≥ 1 µM | inhibition at 3 μM (F656A hERG): 27.4 ± 4.8% | S624A hERG current (S624A hERG): 78.1 ± 31.0 | T623A hERG current (T623A hERG): 266.1 ± 117.0 | WT (inward) hERG current (WT (inward) hERG): -1818.9 ± 217.3 | inhibition at 3 μM [2]: 69 ± 1.8%
